Results on three compounds are retold here after PMC11326893, “A comprehensive measure of Golgi sphingolipid flux using NBD C6-ceramide: evaluation of sphingolipid inhibitors” (Journal of Lipid Research, 2024).

The target of assay [1] is T1, ceramide kinase (CERK) (Homo sapiens, UniProt Q8TCT0).
T1 sequence (Q8TCT0 1-537): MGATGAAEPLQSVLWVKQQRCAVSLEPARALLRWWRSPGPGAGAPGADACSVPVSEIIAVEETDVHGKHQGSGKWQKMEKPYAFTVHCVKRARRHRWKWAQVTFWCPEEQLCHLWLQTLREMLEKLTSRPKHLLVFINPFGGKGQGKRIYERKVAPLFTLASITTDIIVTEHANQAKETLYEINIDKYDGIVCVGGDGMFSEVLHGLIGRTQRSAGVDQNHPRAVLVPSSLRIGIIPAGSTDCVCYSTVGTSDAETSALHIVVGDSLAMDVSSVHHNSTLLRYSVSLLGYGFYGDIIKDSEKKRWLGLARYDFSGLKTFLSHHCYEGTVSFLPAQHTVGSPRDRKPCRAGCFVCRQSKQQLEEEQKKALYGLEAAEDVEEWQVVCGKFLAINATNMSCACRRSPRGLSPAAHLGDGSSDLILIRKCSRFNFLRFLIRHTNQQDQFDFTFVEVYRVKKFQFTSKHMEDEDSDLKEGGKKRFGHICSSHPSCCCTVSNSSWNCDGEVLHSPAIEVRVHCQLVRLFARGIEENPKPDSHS
The experiment in a line: NBD-C6-ceramide to NBD-C1P conversion (HPLC, fluorescence) in MCF7 cells overexpressing CERK. Format: cell-based.

For assay [2], the target named is T1, ceramide kinase (CERK). The experiment in a line: in vitro activity assay with purified recombinant CERK, NBD-C6-Cer substrate; only about […] decrease at […]. Type of assay: biochemical. On the set-up: full-length human CERK. Conditions: read-out: % decrease in activity at 50 μM and 100 μM.
For assay [3], the target named is T2, glucosylceramide synthase (GCS) (Homo sapiens, UniProt Q16739).
T2 construct: gene UGCG
T2 sequence (Q16739 1-394): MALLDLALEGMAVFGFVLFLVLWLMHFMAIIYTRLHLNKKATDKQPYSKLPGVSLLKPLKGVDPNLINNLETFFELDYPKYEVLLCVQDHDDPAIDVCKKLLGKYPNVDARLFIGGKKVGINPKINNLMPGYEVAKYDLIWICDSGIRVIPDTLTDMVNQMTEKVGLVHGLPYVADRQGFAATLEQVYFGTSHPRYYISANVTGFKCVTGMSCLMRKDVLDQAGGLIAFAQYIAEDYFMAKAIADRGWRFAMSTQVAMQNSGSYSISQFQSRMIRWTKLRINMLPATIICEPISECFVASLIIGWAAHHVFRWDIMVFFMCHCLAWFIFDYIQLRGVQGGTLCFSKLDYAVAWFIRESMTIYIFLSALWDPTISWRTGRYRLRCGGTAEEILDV
Description: NBD-C6-ceramide to NBD-HexCer conversion in MCF7 cells, […] eliglustat. Type of assay: cell-based.

For `O=C(Nc1nc2ccc(NC(=O)C34CC5CC(CC(C5)C3)C4)cc2s1)c1ccccc1` [NVP-231], in assay [1], the IC50 was less than 10 nM.

For the compound `CCCCCCCCCC(=O)NC(CN1CCOCC1)C(O)c1ccccc1` (stereo not drawn) [PDMP, 1-phenyl-2-decanoylamino-3-morpholino-1-propanol], the inhibition at 50 µM in assay [2] was found to be 20%.

Take `CCCCCCCC(=O)N[C@H](CN1CCCC1)[C@H](O)c1ccc2c(c1)OCCO2` [eliglustat]: the “NBD-C6-ceramide to NBD-HexCer conversion in MCF7 cells, 50 nM eliglustat” value in assay [3] was “Inhibition with eliglustat and PDMP both nearly eliminated the production of NBD-C6-HexCer”.

The term IC50 denotes the concentration needed to halve the response being measured. Read a low IC50 as greater potency.
